The target in one assay is T1, α2A receptor (Homo sapiens, UniProt P08913).
T1 construct: host or cells: LM(tk-) cells, line L-α2A
T1 sequence (P08913 1-465): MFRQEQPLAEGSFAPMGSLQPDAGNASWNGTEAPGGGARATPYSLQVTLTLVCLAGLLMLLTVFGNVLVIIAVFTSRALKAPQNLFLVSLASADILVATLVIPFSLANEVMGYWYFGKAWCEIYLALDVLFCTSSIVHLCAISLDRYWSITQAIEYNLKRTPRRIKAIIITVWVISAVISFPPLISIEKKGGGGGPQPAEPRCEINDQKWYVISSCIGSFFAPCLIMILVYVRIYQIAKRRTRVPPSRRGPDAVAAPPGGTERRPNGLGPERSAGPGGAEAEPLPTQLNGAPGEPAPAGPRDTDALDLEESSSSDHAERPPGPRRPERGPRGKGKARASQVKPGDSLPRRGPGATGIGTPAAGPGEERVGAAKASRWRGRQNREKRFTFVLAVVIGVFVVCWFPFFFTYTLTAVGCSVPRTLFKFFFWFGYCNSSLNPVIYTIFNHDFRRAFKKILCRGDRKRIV
The assay can be described thus: Competition binding, [3H]rauwolscine, human α2A receptor. A digest of the protocol: (§1)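 LM(tk−) lysates, stable α2A/α2B/α2C transfectants; 25 mM glycylglycine pH 7.6 (RT). [3H]rauwolscine 0.5 nM, equilibrium competition; NSB 10 μM phentolamine. GF/B filtration, cell harvester.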

In the next assay the target is T2, α2C receptor (Homo sapiens, UniProt P18825).
T2 construct: host or cells: LM(tk-) cells, line L-α2C
T2 sequence (P18825 1-462): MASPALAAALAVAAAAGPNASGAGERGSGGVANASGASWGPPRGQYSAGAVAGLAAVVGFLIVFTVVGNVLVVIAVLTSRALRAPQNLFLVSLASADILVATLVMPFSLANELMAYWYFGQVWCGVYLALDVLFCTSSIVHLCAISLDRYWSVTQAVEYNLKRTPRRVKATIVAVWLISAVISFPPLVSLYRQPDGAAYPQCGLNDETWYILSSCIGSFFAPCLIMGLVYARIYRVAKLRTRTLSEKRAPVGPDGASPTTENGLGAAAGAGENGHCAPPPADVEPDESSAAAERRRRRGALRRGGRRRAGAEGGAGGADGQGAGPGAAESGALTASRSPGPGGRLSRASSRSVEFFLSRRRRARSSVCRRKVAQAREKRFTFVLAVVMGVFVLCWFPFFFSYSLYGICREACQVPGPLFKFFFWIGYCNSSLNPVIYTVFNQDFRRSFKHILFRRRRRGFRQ
In words: Competition binding, [3H]rauwolscine, human α2C receptor. A digest of the protocol: as §1

For a further assay, the target named is T3, L-type calcium channel (Rattus norvegicus, UniProt P22002).
T3 construct: membrane fragments of rat cardiac muscle; from tissue; host or cells: rat cardiac muscle membranes
The assay can be described thus: Competition binding of [3H]nitrendipine to membrane fragments of rat cardiac muscle.

Setting [1] is: [3H]rauwolscine, human α2A receptor, LM(tk−) cells, read-out: pKi alpha-2 2a (converted).
[2] abbreviates: pKi alpha-2 2c, [3H]rauwolscine, human α2C receptor, LM(tk−) cells.
[3] abbreviates: [3H]nitrendipine, rat cardiac muscle membrane fragments, L-type calcium channel, read-out: pKi Ca (converted).
The mark [4] stands for this setting: [3H]rauwolscine, human α2C receptor, LM(tk−) cells, read-out: pKi alpha-2 2c (converted).

Experimental findings from US6608086B2, “Dihydropyridines and new uses thereof” (Synaptic Pharmaceutical Corporation, priority 1993, dated 2003) are described below.

Like-named read-outs stand apart in the source and are kept apart here.

T3 sequence (P22002 whole entry, other chains not shown, the tested form may be a part): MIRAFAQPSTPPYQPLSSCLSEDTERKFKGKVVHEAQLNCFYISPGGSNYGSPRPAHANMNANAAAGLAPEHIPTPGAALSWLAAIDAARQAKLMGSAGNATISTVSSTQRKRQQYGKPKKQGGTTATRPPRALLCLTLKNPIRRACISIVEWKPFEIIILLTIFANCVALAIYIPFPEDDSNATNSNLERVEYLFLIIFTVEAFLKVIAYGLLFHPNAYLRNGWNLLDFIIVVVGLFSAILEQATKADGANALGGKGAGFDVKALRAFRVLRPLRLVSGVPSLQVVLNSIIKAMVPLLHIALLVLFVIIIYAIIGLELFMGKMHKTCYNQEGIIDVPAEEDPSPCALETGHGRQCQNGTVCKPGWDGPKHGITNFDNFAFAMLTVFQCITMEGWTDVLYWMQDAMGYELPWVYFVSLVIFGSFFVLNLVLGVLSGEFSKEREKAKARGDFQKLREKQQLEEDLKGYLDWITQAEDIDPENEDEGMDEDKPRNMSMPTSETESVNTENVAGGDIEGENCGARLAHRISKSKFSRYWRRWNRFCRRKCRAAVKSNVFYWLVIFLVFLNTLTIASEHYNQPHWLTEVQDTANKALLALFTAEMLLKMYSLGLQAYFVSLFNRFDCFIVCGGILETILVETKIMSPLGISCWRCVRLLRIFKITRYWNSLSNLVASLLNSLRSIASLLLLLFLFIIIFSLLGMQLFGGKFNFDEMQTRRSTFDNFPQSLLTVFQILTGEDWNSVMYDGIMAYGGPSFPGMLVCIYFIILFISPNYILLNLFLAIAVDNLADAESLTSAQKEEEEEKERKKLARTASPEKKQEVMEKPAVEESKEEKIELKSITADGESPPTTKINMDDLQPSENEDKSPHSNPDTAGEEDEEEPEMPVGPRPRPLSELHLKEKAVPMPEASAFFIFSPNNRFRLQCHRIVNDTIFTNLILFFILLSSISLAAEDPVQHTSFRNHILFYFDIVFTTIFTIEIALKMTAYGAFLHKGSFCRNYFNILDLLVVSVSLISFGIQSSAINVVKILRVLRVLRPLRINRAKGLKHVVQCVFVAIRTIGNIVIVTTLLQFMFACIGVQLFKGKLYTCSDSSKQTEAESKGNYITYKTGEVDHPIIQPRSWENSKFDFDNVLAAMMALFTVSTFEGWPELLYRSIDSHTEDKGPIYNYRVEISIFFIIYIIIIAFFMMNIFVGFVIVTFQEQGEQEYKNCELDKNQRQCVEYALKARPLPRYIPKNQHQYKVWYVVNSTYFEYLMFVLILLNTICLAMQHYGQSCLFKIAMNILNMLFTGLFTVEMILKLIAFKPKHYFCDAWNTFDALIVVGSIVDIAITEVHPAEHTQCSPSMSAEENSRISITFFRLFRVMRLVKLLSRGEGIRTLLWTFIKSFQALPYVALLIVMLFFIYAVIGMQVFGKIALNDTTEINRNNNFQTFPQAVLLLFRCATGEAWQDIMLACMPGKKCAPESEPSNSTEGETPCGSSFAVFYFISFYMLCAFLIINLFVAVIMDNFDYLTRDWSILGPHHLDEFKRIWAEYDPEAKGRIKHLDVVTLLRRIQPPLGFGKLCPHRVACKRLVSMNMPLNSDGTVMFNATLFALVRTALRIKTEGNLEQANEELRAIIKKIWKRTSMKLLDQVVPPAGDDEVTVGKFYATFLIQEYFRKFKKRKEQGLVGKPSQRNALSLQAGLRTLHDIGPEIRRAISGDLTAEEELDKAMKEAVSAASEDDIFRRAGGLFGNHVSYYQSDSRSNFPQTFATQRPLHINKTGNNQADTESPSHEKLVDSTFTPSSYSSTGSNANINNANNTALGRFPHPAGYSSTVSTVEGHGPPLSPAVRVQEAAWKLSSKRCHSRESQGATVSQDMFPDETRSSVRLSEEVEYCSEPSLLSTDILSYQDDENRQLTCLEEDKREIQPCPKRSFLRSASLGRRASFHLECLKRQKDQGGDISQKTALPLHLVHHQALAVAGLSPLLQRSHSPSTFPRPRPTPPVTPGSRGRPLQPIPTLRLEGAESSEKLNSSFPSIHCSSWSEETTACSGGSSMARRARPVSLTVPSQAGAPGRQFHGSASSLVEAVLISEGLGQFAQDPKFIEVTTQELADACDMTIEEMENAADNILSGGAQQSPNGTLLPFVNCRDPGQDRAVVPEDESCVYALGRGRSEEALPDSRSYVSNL
T3 sequence (P54290 25-944 partner limits assumed, other chains not shown): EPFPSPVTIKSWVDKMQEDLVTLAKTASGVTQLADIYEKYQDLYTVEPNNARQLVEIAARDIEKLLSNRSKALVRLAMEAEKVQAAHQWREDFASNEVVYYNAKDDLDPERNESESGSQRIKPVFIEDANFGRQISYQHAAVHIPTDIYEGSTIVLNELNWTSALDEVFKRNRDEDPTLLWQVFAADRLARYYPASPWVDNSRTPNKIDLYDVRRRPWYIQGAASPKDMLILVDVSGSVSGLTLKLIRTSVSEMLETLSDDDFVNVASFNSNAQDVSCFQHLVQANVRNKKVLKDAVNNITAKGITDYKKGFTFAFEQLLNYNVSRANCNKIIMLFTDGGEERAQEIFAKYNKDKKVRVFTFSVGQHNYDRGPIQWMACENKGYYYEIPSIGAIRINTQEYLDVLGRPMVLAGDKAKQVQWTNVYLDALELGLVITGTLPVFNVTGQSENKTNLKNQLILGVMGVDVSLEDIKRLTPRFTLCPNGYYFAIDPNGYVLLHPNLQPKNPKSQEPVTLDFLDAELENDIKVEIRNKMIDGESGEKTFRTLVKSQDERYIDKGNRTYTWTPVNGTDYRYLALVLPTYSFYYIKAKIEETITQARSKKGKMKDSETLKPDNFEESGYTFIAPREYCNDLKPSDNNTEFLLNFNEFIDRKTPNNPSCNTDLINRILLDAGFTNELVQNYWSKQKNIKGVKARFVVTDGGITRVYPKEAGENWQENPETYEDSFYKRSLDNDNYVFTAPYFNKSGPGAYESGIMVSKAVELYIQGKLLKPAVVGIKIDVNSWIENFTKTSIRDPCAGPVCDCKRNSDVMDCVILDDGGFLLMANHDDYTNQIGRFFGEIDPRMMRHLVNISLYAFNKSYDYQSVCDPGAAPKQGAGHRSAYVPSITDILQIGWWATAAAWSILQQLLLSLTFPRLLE
T3 sequence (P54290 945-1091 partner limits assumed, other chains not shown): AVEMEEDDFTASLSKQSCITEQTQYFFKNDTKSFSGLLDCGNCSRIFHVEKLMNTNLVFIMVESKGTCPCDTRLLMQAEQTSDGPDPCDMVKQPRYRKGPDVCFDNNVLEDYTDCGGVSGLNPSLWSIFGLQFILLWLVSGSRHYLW

Turning to `CCC1=C(C(=O)NCCCN2CCC(c3ccccc3)(c3ccccc3)CC2)C(c2cccc(OC)c2)C(C(N)=O)=C(C)N1` (stereo not drawn) [Example 113, 5-Carboxamide-2-ethyl-1,4-dihydro-4-(3-methoxyphenyl)-6-methyl-3-(N-(3-(4,4-diphenylpiperidin-1-yl)propyl)carboxamido)-pyridine], the results for the Ki at α2A receptor (setting [1]), on α2C receptor (setting [2]) and at L-type calcium channel (setting [3]) were 0.759 µM, 0.316 µM and 1000 µM, respectively.

`CCC1=C(C(=O)NCCCN2CCC(c3ccccc3)(c3ccccc3)CC2)C(c2ccc(N)cc2)C(C(=O)OC)=C(C)N1` (stereo not drawn) [Example 114, 4-(4-Aminophenyl)-2-ethyl-1,4-dihydro-5-methoxycarbonyl-6-methyl-3-(N-(3-(4,4-diphenylpiperidin-1-yl)propyl)carboxamido)-pyridine]: the Ki is 2.09 µM on α2A receptor, 0.724 µM on α2C receptor (pKi alpha-2 2c) and 2.88 µM at L-type calcium channel (pKi Ca).

For `CC1=C(C(N)=O)C(c2ccc(S(C)(=O)=O)cc2)C(C(=O)NCCCN2CCC(c3ccccc3)(c3ccccc3)CC2)=C(C)N1` (stereo not drawn) [Example 115, 5-Carboxamido-1,4-4-dihydro-4-(4-methanesufonylphenyl)-2,6-dimethyl-3-(N-(3-(4,4-diphenylpiperidin-1-yl)propyl)carboxamido)-pyridine], the results for the Ki at α2A receptor (setting [1]), at α2C receptor (setting [4]) and at L-type calcium channel (setting [3]) were 3.98 µM, 2.29 µM and 1000 µM, respectively.

For the compound `COc1cccc(C2C(C(N)=O)=C(C)NC(C)=C2C(=O)NCCCN2CCC(c3ccccc3)(c3ccccc3)CC2)c1` (stereo not drawn) [Example 117, 5-Carboxamido-1,4-dihydro-4-(3-Methoxyphenyl)-2,6-dimethyl-3-(N-(3-(4,4-diphenylpiperidin-1-yl)propyl)carboxamido)-pyridine], the Ki at α2A receptor (setting [1]) was 0.955 µM; on α2C receptor (setting [4]), 0.759 µM; on L-type calcium channel (setting [3]), 1000 µM.

Regarding `CCC1=C(C(N)=O)C(c2ccc(S(C)(=O)=O)cc2)C(C(=O)NCCCN2CCC(c3ccccc3)(c3ccccc3)CC2)=C(C)N1` (stereo not drawn) [Example 118, 3-Carboxamido-2-ethyl-1,4-dihydro-4-(4-methanesulfonylphenyl)-6-methyl-3-(N-(3-(4,4-diphenylpiperidin-1-yl)propyl)carboxyamido)-pyridine], the Ki at α2A receptor (setting [1]) is 3.89 µM; on α2C receptor (setting [2]) it was 2.24 µM; at L-type calcium channel (setting [3]), 1000 µM.

Take `CCC1=C(C(N)=O)C(c2ccc([N+](=O)[O-])cc2)C(C(=O)NCCCN2CCN(c3ccccc3OC)CC2)=C(CC)N1` (stereo not drawn) [Example 125, 5-Carboxamido-2,6-diethyl-1,4-dihydro-3-(N-{3-[4-(2-methoxyphenyl)piperazin-1-yl]propyl})carboxamido-4-(4-nitrophenyl)pyridine]: the Ki is 0.0269 µM at α2A receptor (setting [1]), 0.0229 µM at α2C receptor (setting [4]) and 38 µM at L-type calcium channel (setting [3]).

Regarding `CC(C)C1=C(C(N)=O)C(c2ccc([N+](=O)[O-])cc2)C(C(=O)NCCCN2CCC(c3ccccc3)(c3ccccc3)CC2)=C(C(C)C)N1` (stereo not drawn) [Example 127], at α2A receptor ([3H]rauwolscine, human α2A receptor, LM(tk−) cells), the “pKi alpha-2 2a” value was found to be 6.17. Further, the “pKi alpha-2 2c” value at α2C receptor ([3H]rauwolscine, human α2C receptor, LM(tk−) cells) is given as 6.37. Moreover, the Ki on L-type calcium channel (setting [3]) is 1000 µM.

For `CC1=C(C(=O)NCCCN2CCC(c3ccccc3)(c3ccccc3)CC2)C(c2ccc([N+](=O)[O-])cc2)C(C(=O)NC(C)C)=C(C)N1` (stereo not drawn) [Example 156, 1,4-Dihydro-3-(N-isopropyl) carboxamido-2,6-dimethyl-4-(4-nitrophenyl)-5-{N-[3-(^414-diphenylpiperidin-1-yl)propyl]}carboxamidopyridine], the results for the Ki at α2A receptor (setting [1]), at α2C receptor (setting [4]) and at L-type calcium channel (setting [3]) were 0.316 µM, 0.219 µM and 75.9 µM, respectively.

In the case of `CC1=C(C(=O)NCCCN2CCC(c3ccccc3)(c3ccccc3)CC2)C(c2ccc([N+](=O)[O-])cc2)C(C(=O)OCCC#N)=C(C)N1` (stereo not drawn) [Example 160], the values for the Ki on α2A receptor (setting [1]), on α2C receptor (setting [4]) and at L-type calcium channel (setting [3]) were 0.457 µM, 0.155 µM and 15.5 µM, respectively.

For `CNC(=O)C1=C(C)NC(C)=C(C(=O)NCCCN2CCC(O)(c3ccccc3)CC2)C1c1ccc([N+](=O)[O-])cc1` (stereo not drawn) [Example 162, 1,4-Dihydro-3-{N-[3-(4-hydroxy-4-phenylpiperidin-1-yl)propyl]}carboxamido-2,6-dimethyl-5-(N-methyl)carboxamido-4-(4-nitrophenyl)pyridine], the Ki on α2A receptor (setting [1]) was 0.631 µM; on α2C receptor (setting [4]), 0.55 µM; on L-type calcium channel (setting [3]), 50.1 µM.
